The target of the first series is T1, Apelin receptor (Homo sapiens, UniProt P35414).
T1 sequence (P35414 whole entry): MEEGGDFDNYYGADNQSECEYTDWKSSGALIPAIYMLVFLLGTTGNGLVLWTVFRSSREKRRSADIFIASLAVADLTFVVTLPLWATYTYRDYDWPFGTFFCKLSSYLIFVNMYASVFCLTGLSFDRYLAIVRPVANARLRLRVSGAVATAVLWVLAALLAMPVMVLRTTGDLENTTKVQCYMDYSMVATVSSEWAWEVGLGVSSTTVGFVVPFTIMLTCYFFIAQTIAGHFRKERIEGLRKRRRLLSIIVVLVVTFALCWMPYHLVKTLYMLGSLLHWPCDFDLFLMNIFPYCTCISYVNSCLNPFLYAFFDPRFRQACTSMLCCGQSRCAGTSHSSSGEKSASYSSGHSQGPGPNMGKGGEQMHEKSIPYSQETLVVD
Description: Agonist activity at human APJ receptor assessed as effect on cAMP accumulation by cAMP-Glo assay.
Settings: not given
Type of series: functional. A general note: Changes in cAMP serve as a functional read-out for many G protein-coupled receptors.
On to `CCCCc1[nH]c(=O)c(S(=O)(=O)c2ccc(-c3cccnc3OC)cc2)c(O)c1-c1c(OC)cccc1OC`, for which the concentration giving a half-maximal response (EC50) stood at 0.03 nM.
Still for that read-out and setting: then `CCCCc1[nH]c(=O)c(S(=O)(=O)c2ccc(-n3ccccc3=O)cc2)c(O)c1-c1c(OC)cccc1OC`, with 0.5 nM; and `CCCCc1nc(=O)c(S(=O)(=O)c2ccc(-n3cc(Cl)ccc3=O)cc2)c(O)n1-c1c(OC)cccc1OC`, with 0.05 nM.
Regarding `CCCCc1nc(=O)c(S(=O)(=O)c2ccc(-c3cccnc3OC)cc2)c(O)n1-c1c(OC)cccc1OC`, the EC50 was 0.01 nM.
Still for that read-out and setting: then `CCCCc1nc(=O)c(S(=O)(=O)c2ccc(-c3ccc(F)nc3)cc2)c(O)n1-c1c(OC)cccc1OC`, with 0.002 nM; and `COc1cccc(OC)c1-n1c(-c2cncc(C)c2)nc(=O)c(S(=O)(=O)c2ccc(C3CC3)cc2)c1O`, with 5 nM; and `CCCCc1[nH]c(=O)c(S(=O)(=O)c2ccc(-c3ccncc3C)cc2)c(O)c1-c1c(OC)cccc1OC`, with 0.04 nM.
Still for that read-out and setting: in the case of `COc1cccc(OC)c1-n1c(C2CCCC2)nc(=O)c(S(=O)(=O)c2ccc(C3CC3)cc2)c1O` it was 0.3 nM.
For `CCCCc1nc(=O)c(S(=O)(=O)c2ccc(C)cc2)c(O)n1-c1c(OC)cccc1OC`, the 50% effective concentration (EC50) is 0.2 nM.
Still for that read-out and setting: in the case of `CCCCc1[nH]c(=O)c(S(=O)(=O)c2ccc(-c3ccc(F)cc3)cc2)c(O)c1-c1c(OC)cccc1OC` it was 17 nM.

System in another series: not listed separately
Put plainly: Metabolic stability in rat liver microsomes assessed as parent compound remaining incubated for 10 mins in presence of NADPH. It is filed as ADME, Microsome. The note with it: read-out: Stabilty. On the technique in general: Liver microsomes are vesicles of endoplasmic reticulum, rich in cytochrome P450 enzymes.
With `CCCCc1[nH]c(=O)c(S(=O)(=O)c2ccc(-n3ccccc3=O)cc2)c(O)c1-c1c(OC)cccc1OC`, the remaining at 10 min came out at 100%.
On the same count and under the same terms, in the case of `CCCCc1nc(=O)c(S(=O)(=O)c2ccc(-n3cc(Cl)ccc3=O)cc2)c(O)n1-c1c(OC)cccc1OC` it was 74%; in that of `CCCCc1nc(=O)c(S(=O)(=O)c2ccc(-c3cccnc3OC)cc2)c(O)n1-c1c(OC)cccc1OC`, 27%.
On the same count and under the same terms, in the case of `CCCCc1nc(=O)c(S(=O)(=O)c2ccc(-c3ccc(F)nc3)cc2)c(O)n1-c1c(OC)cccc1OC` it was 2%.
The same measure, in the same setting: then `CCCCc1[nH]c(=O)c(S(=O)(=O)c2ccc(-c3ccncc3C)cc2)c(O)c1-c1c(OC)cccc1OC`, with 57%; and `CCCCc1nc(=O)c(S(=O)(=O)c2ccc(C)cc2)c(O)n1-c1c(OC)cccc1OC`, with 74%.

System in a further series: not listed separately
Put plainly: Permeability of the compound at pH 5.5 by PAMPA. The note with it: read-out: permeability. Type of series: ADME.
For the compound `CCCCc1[nH]c(=O)c(S(=O)(=O)c2ccc(-n3ccccc3=O)cc2)c(O)c1-c1c(OC)cccc1OC`, the Papp worked out at 17.7 ×10⁻⁶ cm/s.
With `CCCCc1nc(=O)c(S(=O)(=O)c2ccc(-n3cc(Cl)ccc3=O)cc2)c(O)n1-c1c(OC)cccc1OC`, the Papp is 8.3 ×10⁻⁶ cm/s.
Same read-out and setting: in the case of `CCCCc1nc(=O)c(S(=O)(=O)c2ccc(-c3cccnc3OC)cc2)c(O)n1-c1c(OC)cccc1OC` it was 45.6 ×10⁻⁶ cm/s.
As for `CCCCc1nc(=O)c(S(=O)(=O)c2ccc(-c3ccc(F)nc3)cc2)c(O)n1-c1c(OC)cccc1OC`, the Papp stood at 51.6 ×10⁻⁶ cm/s.
On the same count and under the same terms, then `CCCCc1[nH]c(=O)c(S(=O)(=O)c2ccc(-c3ccncc3C)cc2)c(O)c1-c1c(OC)cccc1OC`, with 35.5 ×10⁻⁶ cm/s; and `CCCCc1nc(=O)c(S(=O)(=O)c2ccc(C)cc2)c(O)n1-c1c(OC)cccc1OC`, with 24.3 ×10⁻⁶ cm/s.

System in a further series: not listed separately
Put plainly: Permeability of the compound at pH 7.4 by PAMPA. It is filed as ADME. The note with it: read-out: permeability.
As for `CCCCc1[nH]c(=O)c(S(=O)(=O)c2ccc(-n3ccccc3=O)cc2)c(O)c1-c1c(OC)cccc1OC`, the Papp came out at 0.5 ×10⁻⁶ cm/s.
As for `CCCCc1nc(=O)c(S(=O)(=O)c2ccc(-c3ccc(F)nc3)cc2)c(O)n1-c1c(OC)cccc1OC`, the Papp was found to be 2.4 ×10⁻⁶ cm/s.
Same read-out and setting: in the case of `CCCCc1[nH]c(=O)c(S(=O)(=O)c2ccc(-c3ccncc3C)cc2)c(O)c1-c1c(OC)cccc1OC` it was 7.6 ×10⁻⁶ cm/s; in that of `CCCCc1nc(=O)c(S(=O)(=O)c2ccc(C)cc2)c(O)n1-c1c(OC)cccc1OC`, 0.7 ×10⁻⁶ cm/s.

System in another series: not listed separately
Put plainly: Metabolic stability in mouse liver microsomes assessed as parent compound remaining incubated for 10 mins in presence of NADPH. The note with it: read-out: Stabilty. It is filed as ADME, Microsome.
In the case of `CCCCc1[nH]c(=O)c(S(=O)(=O)c2ccc(-c3cccnc3OC)cc2)c(O)c1-c1c(OC)cccc1OC`, the remaining at 10 min turned out to be 24%.
Same read-out and setting: in the case of `CCCCc1[nH]c(=O)c(S(=O)(=O)c2ccc(-n3ccccc3=O)cc2)c(O)c1-c1c(OC)cccc1OC` it was 75%; in that of `CCCCc1nc(=O)c(S(=O)(=O)c2ccc(-n3cc(Cl)ccc3=O)cc2)c(O)n1-c1c(OC)cccc1OC`, 100%.
The same measure, in the same setting: then `CCCCc1nc(=O)c(S(=O)(=O)c2ccc(-c3cccnc3OC)cc2)c(O)n1-c1c(OC)cccc1OC`, with 98%; and `CCCCc1nc(=O)c(S(=O)(=O)c2ccc(-c3ccc(F)nc3)cc2)c(O)n1-c1c(OC)cccc1OC`, with 69%; and `CCCCc1[nH]c(=O)c(S(=O)(=O)c2ccc(-c3ccncc3C)cc2)c(O)c1-c1c(OC)cccc1OC`, with 39%.
Same read-out and setting: then `CCCCc1nc(=O)c(S(=O)(=O)c2ccc(C)cc2)c(O)n1-c1c(OC)cccc1OC`, with 80%.

For another series, the target named is T2, Apelin receptor (Mus musculus, UniProt Q9WV08).
T2 sequence (Q9WV08 whole entry): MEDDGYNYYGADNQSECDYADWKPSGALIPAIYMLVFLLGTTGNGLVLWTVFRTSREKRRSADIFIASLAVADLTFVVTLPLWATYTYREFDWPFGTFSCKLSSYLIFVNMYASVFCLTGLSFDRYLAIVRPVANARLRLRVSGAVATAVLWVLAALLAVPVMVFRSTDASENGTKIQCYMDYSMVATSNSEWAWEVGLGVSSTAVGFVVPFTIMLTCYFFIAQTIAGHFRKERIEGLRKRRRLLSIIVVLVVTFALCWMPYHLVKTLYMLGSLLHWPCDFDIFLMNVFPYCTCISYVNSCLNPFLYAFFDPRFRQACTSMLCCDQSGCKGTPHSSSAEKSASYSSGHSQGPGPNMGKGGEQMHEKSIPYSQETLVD
Put plainly: Agonist activity at mouse APJ receptor assessed as effect on cAMP accumulation by cAMP-Glo assay.
Settings: not given
On to `CCCCc1[nH]c(=O)c(S(=O)(=O)c2ccc(-c3cccnc3OC)cc2)c(O)c1-c1c(OC)cccc1OC`, for which the EC50 was 0.2 nM.
For the compound `CCCCc1[nH]c(=O)c(S(=O)(=O)c2ccc(-n3ccccc3=O)cc2)c(O)c1-c1c(OC)cccc1OC`, the EC50 amounted to 2 nM.
Still for that read-out and setting: in the case of `CCCCc1nc(=O)c(S(=O)(=O)c2ccc(-n3cc(Cl)ccc3=O)cc2)c(O)n1-c1c(OC)cccc1OC` it was 0.02 nM.
Still for that read-out and setting: then `CCCCc1nc(=O)c(S(=O)(=O)c2ccc(-c3cccnc3OC)cc2)c(O)n1-c1c(OC)cccc1OC`, with 0.03 nM; and `CCCCc1nc(=O)c(S(=O)(=O)c2ccc(-c3ccc(F)nc3)cc2)c(O)n1-c1c(OC)cccc1OC`, with 0.02 nM; and `COc1cccc(OC)c1-n1c(-c2cncc(C)c2)nc(=O)c(S(=O)(=O)c2ccc(C3CC3)cc2)c1O`, with 5 nM.
`CCCCc1[nH]c(=O)c(S(=O)(=O)c2ccc(-c3ccncc3C)cc2)c(O)c1-c1c(OC)cccc1OC`: the concentration giving a half-maximal response (EC50) came to 0.1 nM.
Same read-out and setting: in the case of `COc1cccc(OC)c1-n1c(C2CCCC2)nc(=O)c(S(=O)(=O)c2ccc(C3CC3)cc2)c1O` it was 0.4 nM; in that of `CCCCc1nc(=O)c(S(=O)(=O)c2ccc(C)cc2)c(O)n1-c1c(OC)cccc1OC`, 0.3 nM; in that of `CCCCc1[nH]c(=O)c(S(=O)(=O)c2ccc(-c3ccc(F)cc3)cc2)c(O)c1-c1c(OC)cccc1OC`, 34 nM.

System in another series: not listed separately
Put plainly: Metabolic stability in human liver microsomes assessed as parent compound remaining incubated for 10 mins in presence of NADPH. Type of series: ADME, Microsome. The note with it: read-out: Stabilty.
On to `CCCCc1[nH]c(=O)c(S(=O)(=O)c2ccc(-c3cccnc3OC)cc2)c(O)c1-c1c(OC)cccc1OC`, for which the remaining at 10 min was determined as 72%.
Same read-out and setting: in the case of `CCCCc1[nH]c(=O)c(S(=O)(=O)c2ccc(-n3ccccc3=O)cc2)c(O)c1-c1c(OC)cccc1OC` it was 100%; in that of `CCCCc1nc(=O)c(S(=O)(=O)c2ccc(-n3cc(Cl)ccc3=O)cc2)c(O)n1-c1c(OC)cccc1OC`, 94%.
Same read-out and setting: then `CCCCc1nc(=O)c(S(=O)(=O)c2ccc(-c3cccnc3OC)cc2)c(O)n1-c1c(OC)cccc1OC`, with 97%; and `CCCCc1nc(=O)c(S(=O)(=O)c2ccc(-c3ccc(F)nc3)cc2)c(O)n1-c1c(OC)cccc1OC`, with 100%; and `CCCCc1[nH]c(=O)c(S(=O)(=O)c2ccc(-c3ccncc3C)cc2)c(O)c1-c1c(OC)cccc1OC`, with 80%.
For `CCCCc1nc(=O)c(S(=O)(=O)c2ccc(C)cc2)c(O)n1-c1c(OC)cccc1OC`, the remaining at 10 min was determined as 94%.

For a further series, the target named is T3, Apelin receptor (Rattus norvegicus, UniProt Q9JHG3).
T3 sequence (Q9JHG3 whole entry): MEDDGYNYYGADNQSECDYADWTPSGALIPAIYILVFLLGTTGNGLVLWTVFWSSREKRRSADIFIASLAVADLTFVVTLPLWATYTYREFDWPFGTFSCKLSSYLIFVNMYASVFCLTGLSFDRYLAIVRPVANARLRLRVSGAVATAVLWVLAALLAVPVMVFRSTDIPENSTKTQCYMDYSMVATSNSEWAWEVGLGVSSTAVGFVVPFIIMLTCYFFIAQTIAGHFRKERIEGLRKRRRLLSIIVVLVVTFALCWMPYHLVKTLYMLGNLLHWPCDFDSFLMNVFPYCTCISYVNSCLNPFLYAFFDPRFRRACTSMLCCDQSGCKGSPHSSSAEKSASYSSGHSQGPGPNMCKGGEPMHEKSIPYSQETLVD
Put plainly: Agonist activity at rat APJ receptor assessed as effect on cAMP accumulation by cAMP-Glo assay.
Settings: not given
Type of series: functional.
Take `CCCCc1[nH]c(=O)c(S(=O)(=O)c2ccc(-c3cccnc3OC)cc2)c(O)c1-c1c(OC)cccc1OC`: the EC50 turned out to be 0.7 nM.
On the same count and under the same terms, then `CCCCc1[nH]c(=O)c(S(=O)(=O)c2ccc(-n3ccccc3=O)cc2)c(O)c1-c1c(OC)cccc1OC`, with 3 nM; and `CCCCc1nc(=O)c(S(=O)(=O)c2ccc(-n3cc(Cl)ccc3=O)cc2)c(O)n1-c1c(OC)cccc1OC`, with 0.01 nM.
The same measure, in the same setting: then `CCCCc1nc(=O)c(S(=O)(=O)c2ccc(-c3cccnc3OC)cc2)c(O)n1-c1c(OC)cccc1OC`, with 0.02 nM; and `CCCCc1nc(=O)c(S(=O)(=O)c2ccc(-c3ccc(F)nc3)cc2)c(O)n1-c1c(OC)cccc1OC`, with 0.004 nM.
Same read-out and setting: then `COc1cccc(OC)c1-n1c(-c2cncc(C)c2)nc(=O)c(S(=O)(=O)c2ccc(C3CC3)cc2)c1O`, with 10 nM; and `CCCCc1[nH]c(=O)c(S(=O)(=O)c2ccc(-c3ccncc3C)cc2)c(O)c1-c1c(OC)cccc1OC`, with 0.4 nM.
For the compound `COc1cccc(OC)c1-n1c(C2CCCC2)nc(=O)c(S(=O)(=O)c2ccc(C3CC3)cc2)c1O`, the EC50 was 1.5 nM.
On to `CCCCc1nc(=O)c(S(=O)(=O)c2ccc(C)cc2)c(O)n1-c1c(OC)cccc1OC`, for which the concentration for a half-maximal effect (EC50) worked out at 0.3 nM.
On the same count and under the same terms, then `CCCCc1[nH]c(=O)c(S(=O)(=O)c2ccc(-c3ccc(F)cc3)cc2)c(O)c1-c1c(OC)cccc1OC`, with 72 nM.

One may read the EC50 as the concentration that produces a half-maximal response.

These data come from ChEMBL document CHEMBL4808235, “Identification of 6-hydroxy-5-phenyl sulfonylpyrimidin-4(1H)-one APJ receptor agonists” (Bioorg Med Chem Lett, 2021).
